In patent publication US12552834B2, “Selective MENA binding peptides” (MASSACHUSETTS INSTITUTE OF TECHNOLOGY, priority 2021, dated 2026):

Columns and labels:
[1] = system: EVL Y63C, I26A and VASP W89Y, L15V; assay: BLI, binding to EVL and VASP hydrophobic core mutants
ENAH EVH1 domain = biological target: T1, ENAH EVH1 domain (Homo sapiens, UniProt Q8N8S7); assay: Biolayer interferometry (BLI), SUMO-peptide fusions binding monomeric ENAH EVH1 domain WT
T1 construct: places a 6×-His and TEV cleavage tag N-terminal to the EVH1 domain; 6×-His + TEV cleavage site (N, cleaved yes); made in house; host or cells: E. coli Rosetta2(DE3)
Procedure: All BLI experiments were performed with 2 replicates on an Octet Red96 instrument (ForteBio). […] The loaded tips were immersed in a solution of ENAH EVH1 domain at a relevant dilution series in BLI buffer at an orbital shake speed of 1000 rpm and run until the binding signal plateaued. ENAH-bound tips were subsequently placed into BLI buffer only for dissociation and run until the binding signal plateaued. KD values were obtained through steady state analysis. […] The association phases were then fit to a one-phase binding model in Prism and the equilibrium steady-state binding signal values from that fit were plotted against ENAH concentration and fit to a single-site specific binding model in Prism to obtain dissociation constants. Errors reported are the standard deviation of two replicates.
Monomeric ENAH, EVL, or VASP EVH1 domains for use in BLI and ITC experiments, or ENAH EVH1-peptide fusions for crystallography was cloned into a pMCSG7 vector (gift from Frank Gertler, MIT), which places a 6×-His and TEV cleavage tag N-terminal to the EVH1 domain. These constructs were transformed into Rosetta2(DE3) cells and grown in 2×YT media supplemented with 100 μg/mL ampicillin. Cells were grown while shaking at 37° C. to an O.D. 600 of 0.5-0.7, and then cooled on ice for at least 20 minutes. They were then induced with 0.5 mM IPTG and grown while shaking at 18° C. overnight. Induced cultures were resuspended in 25 mL of wash buffer (20 mM Hepes pH 7.6, 500 mM NaCl, 20 mM imidazole) and frozen at −80° C. overnight. The next day, cultures were sonicated, spun down, and applied to Ni-NTA acid agarose resin equilibrated with wash buffer, and washed as described above. Samples were eluted in 10 mL elution buffer (20 mM Hepes pH 7.6, 500 mM NaCl, […]). TEV protease was added to the elution at a ratio of 1 mg TEV:50 mg tagged protein along with 1 mM DTT. This mixture was dialyzed against TEV cleavage buffer (50 mM Hepes pH 8.0, 300 mM NaCl, 5 mM DTT, 1 mM EDTA) at 4° C. overnight and then applied over Ni-NTA acid agarose resin equilibrated with wash buffer. The column was washed with 2×8 mL of wash buffer, and the resulting flow-through and washes were pooled, concentrated, and applied to an S75 26/60 column equilibrated in gel filtration buffer (20 mM Hepes pH 7.6, 150 mM NaCl, 1 mM DTT, 1% glycerol). Purity was verified by SDS-PAGE and combined fractions were concentrated and flash frozen at −80° C.
Rosetta2(DE3) cells (Novagen) were transformed with pDW363 vector encoding 6×-His-SUMO-peptide fusions and grown in 20 mL of LB+100 μg/mL Ampicillin+0.050 mM D-(+)-Biotin dissolved in DMSO for in vivo biotinylation. Cells were grown to an OD of 0.5-0.7 with 1 mM IPTG and induced for 4-6 hours at 37° C. Pellets were spun down and frozen and −80° C. for at least 2 hours. These pellets were then thawed and resuspended in B-PER reagent (ThermoFisher) at 4 mL/gram of pellet with 0.2 mM PMSF. This suspension was shaken at 25° C. for 10-15 minutes, and then spun down at 15,000 g for 10 minutes. The supernatant was applied to 250 μL of Ni-NTA acid agarose resin equilibrated in 20 mM Tris pH 8.0, 500 mM NaCl, 20 mM Imidazole (Buffer A), and then washed 3 times with 1 mL of this buffer. Peptides were eluted in 1.8 mL of 20 mM Tris pH 8.0, 500 mM NaCl, 300 mM imidazole to use in BLI assays.

VASP or EVL EVH1 domains = assay: BLI, paralog selectivity: ENAH versus VASP or EVL EVH1 domains; assay type: binding
Procedure: Next, we examined whether residues flanking FP4 (SEQ ID NO:46) SLiMs impact paralog specificity.
All BLI experiments were performed with 2 replicates on an Octet Red96 instrument (ForteBio). Biotinylated, 6×-His-Sumo-peptide fusions purified in small scale were diluted into BLI buffer (PBS pH 7.4, 1% BSA, 0.1% Tween-20, 1 mM DTT) and immobilized onto streptavidin-coated tips (ForteBio) until loading reached a response level between 0.5-0.6 nm. The loaded tips were immersed in a solution of ENAH EVH1 domain at a relevant dilution series in BLI buffer at an orbital shake speed of 1000 rpm and run until the binding signal plateaued. ENAH-bound tips were subsequently placed into BLI buffer only for dissociation and run until the binding signal plateaued. KD values were obtained through steady state analysis. Briefly, the data were corrected for background by subtracting the signal obtained when doing the same experiment using a biotinylated, 6×-His Sumo instead of an immobilized ENAH-binding peptide. The association phases were then fit to a one-phase binding model in Prism and the equilibrium steady-state binding signal values from that fit were plotted against ENAH concentration and fit to a single-site specific binding model in Prism to obtain dissociation constants. Errors reported are the standard deviation of two replicates. […]

T1 sequence (Q8N8S7 with tags, fused parts or gaps): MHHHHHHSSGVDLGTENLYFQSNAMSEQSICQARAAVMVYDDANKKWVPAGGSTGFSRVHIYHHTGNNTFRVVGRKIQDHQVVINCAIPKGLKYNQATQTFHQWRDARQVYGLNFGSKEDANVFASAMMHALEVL

Row | SMILES | binding to EVL Y63C, I26A and VASP W89Y, L15V, in words [1] | tighter binding than PCARE B (ENAH EVH1 domain) | slower dissociation than dual-motif peptide LPP (ENAH EVH1 domain; BLI off-rate) | preference / selectivity for ENAH over VASP or EVL EVH1 domains (VASP or EVL EVH1 domains)
1 | CSCC[C@H](NC(=O)[C@H](CC(C)C)NC(=O)[C@@H](NC(=O)[C@H](CCC(=O)O)NC(=O)[C@H](CCSC)NC(=O)[C@@H]1CCCN1C(=O)[C@@H]1CCCN1C(=O)[C@@H]1CCCN1C(=O)[C@@H]1CCCN1C(=O)[C@H](CC(C)C)NC(=O)[C@H](Cc1c[nH]cn1)NC(=O)[C@H](CCC(=O)O)NC(=O)[C@H](CC(C)C)NC(=O)[C@@H](N)CC(N)=O)C(C)C)C(=O)N[C@@H](CC(=O)O)C(=O)N[C@@H](CCCCN)C(=O)N[C@@H](CO)C(=O)N[C@@H](Cc1ccccc1)C(=O)N[C@@H](C)C(=O)N[C@@H](CO)C(=O)N[C@@H](CC(C)C)C(=O)N[C@@H](CCC(=O)O)C(=O)N[C@@H](CO)C(=O)O [PCARE B] | not sufficient to confer high affinity of binding |  |  | 
2 | CSCC[C@H](NC(=O)[C@H](CC(C)C)NC(=O)[C@@H](NC(=O)[C@H](CCC(=O)O)NC(=O)[C@H](CCSC)NC(=O)[C@@H]1CCCN1C(=O)[C@@H]1CCCN1C(=O)[C@@H]1CCCN1C(=O)[C@@H]1CCCN1C(=O)[C@H](CC(C)C)NC(=O)[C@H](Cc1c[nH]cn1)NC(=O)[C@H](CCC(=O)O)NC(=O)[C@H](CC(C)C)NC(=O)[C@@H](N)CC(N)=O)C(C)C)C(=O)N[C@@H](CC(=O)O)C(=O)N[C@@H](CCCCN)C(=O)N[C@@H](CO)C(=O)N[C@@H](Cc1ccccc1)C(=O)N[C@@H](C)C(=O)N[C@@H](CO)C(=O)N[C@@H](CC(C)C)C(=O)N[C@@H](CCC(=O)O)C(=O)N[C@@H](CO)C(=O)NCC(=O)N[C@@H](CO)C(=O)NCC(=O)N[C@@H](CO)C(=O)N1CCC[C@H]1C(=O)N1CCC[C@H]1C(=O)N1CCC[C@H]1C(=O)N1CCC[C@H]1C(=O)N1CCC[C@H]1C(=O)N[C@@H](Cc1ccccc1)C(=O)O [PCARE-Dual] |  | ~7 fold | ~100 fold | 400-600 fold
